Here are results for 2 molecules from patent publication US7566808B2, “Management of ophthalmologic disorders, including macular degeneration” (President and Fellows of Harvard College, priority 2004, dated 2009).

The subject of one assay is Abca4−/− mice. Nature of the assay: A2E accumulation after chronic treatment of Abca4−/− mice. The following applies: 50 mg/kg i.p. twice a week for 2 months. It counts as in vivo. On the procedure:
Tissue extraction and HPLC analysis: Posterior eye cups were pooled and homogenized in PBS using a tissue grinder. An equal volume of a mixture of chloroform/methanol (2:1) was added and the sample was extracted three times. To remove insoluble material, extracts were filtered through cotton and passed through a reversed phase (C18 Sep-Pak, Millipore) cartridge with 0.1% TFA in methanol. After removing solvent by evaporation under gas, the extract was dissolved in methanol containing 0.1% TFA, for HPLC analysis. For quantification of A2E, a Waters Alliance 2695 HPLC was employed with a Atlantis® dC18 column (Waters, 4.6×150 mm, 3 μm) and the following gradient of acetonitrile in water (containing 0.1% trifluoroacetic acid): 90-100% (0-10 min), 100% acetonitrile (10-20 min), and a flow rate of 0.8 mL/min with monitoring at 430 nm. The injection volume was 10 μL. […] Levels of A2E and iso-A2E were determined by reference to an external standard of HPLC-purified A2E/iso-A2E. […]
As shown in FIGS. 29A-D, both compounds, but especially TDT, were highly efficient in lowering A2E accumulation. FIGS. 29A-D show quantitation of A2E and iso-A2E in eye cups of Abcr −/− mice. […] FIG>29D: A2E/iso-A2E quantitation from integrated peak areas normalized to external standards. Values expressed as picomoles per eye and are based on single samples obtained by pooling 4 eyes.

The next assay has as its target T1, purified bovine mRPE65 (Bos taurus, UniProt Q28175).
T1 construct: mRPE65 was extracted and purified from the bovine eye cups using a procedure described earlier; tissue W. L. Lawson Co; host or cells: bovine eye cups (retinal pigment epithelium)
Nature of the assay: Fluorescence titration of mRPE65 with TDT and TDH. To be noted: 0.952 μM mRPE65, phosphate buffered saline pH 7.4, 1% CHAPS; read-out: KD for binding to mRPE65. On the procedure: Purification of mRPE65: mRPE65 was extracted and purified from the bovine eye cups using a procedure described earlier. Protein purity was established by silver staining and Western blotting (1:4000 primary antibody—1 h at room temperature and 1:4000 secondary antibody 0.5 h at room temperature). Buffers were changed by dialysis in the request buffer overnight in a slide-a-lyser™ cassette from Pierce (10 KDa MWCO). RPE65 solutions were concentrated with an Amicon Ultra™ centrifugal filtration device (30 KDa-cutoff) from Millipore Corp. The final protein solution contained 100 mM phosphate buffered saline (150 mM NaCl) pH 7.4 and 1% CHAPSO. The protein concentration was measured by a modified Lowry method using the Bio-Rad DC protein assay protocol.
Fluorescence binding assays: RPE65 in PBS, 1% CHAPS, pH 7.4 was used in the fluorometric titration studies. All titrations were performed at 25° C. The samples in PBS buffer were excited at 280 nm and the fluorescence was scanned from 300 to 500 nm. Fluorescence measurements, using 450 μL quartz cuvettes with a 0.5 cm path length, were made at 25° C. on a Jobin Yvon Instruments, Fluoromax 2 employing the right-angle detection method.
The fluorescence of the protein solution was measured after equilibrating it at 25° C. for 10 min. […] The binding constant (KD) was calculated from the fluorescence intensity as described before (17,19). […]

Broadly, the Kd is the equilibrium constant for the complex coming apart.

T1 sequence (Q28175 whole entry): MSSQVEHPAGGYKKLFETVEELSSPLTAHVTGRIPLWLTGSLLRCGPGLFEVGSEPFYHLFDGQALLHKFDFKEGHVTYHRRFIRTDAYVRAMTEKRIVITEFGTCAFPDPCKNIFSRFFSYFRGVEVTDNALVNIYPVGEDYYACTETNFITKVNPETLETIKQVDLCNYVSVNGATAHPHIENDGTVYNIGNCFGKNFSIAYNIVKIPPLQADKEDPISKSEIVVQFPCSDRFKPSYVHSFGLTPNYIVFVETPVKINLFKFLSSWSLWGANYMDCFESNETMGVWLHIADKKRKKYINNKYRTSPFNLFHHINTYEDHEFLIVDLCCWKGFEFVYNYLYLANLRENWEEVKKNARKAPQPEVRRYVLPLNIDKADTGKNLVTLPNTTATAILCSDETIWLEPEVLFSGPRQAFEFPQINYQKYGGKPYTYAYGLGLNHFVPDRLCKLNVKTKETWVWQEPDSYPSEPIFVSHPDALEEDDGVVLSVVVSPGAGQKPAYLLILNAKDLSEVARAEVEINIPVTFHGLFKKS

Turning to `CCCCCCCCCCCCCCCCNC(=O)/C=C(\C)CC/C=C(\C)CCC=C(C)C` [TDH, 3,7,11-Trimethyl-dodeca-2,6,10-trienoic acid hexadecylamide], the “effect on A2E accumulation” value with Abca4−/− mice is on record as “profound effects on limiting A2E accumulation”. For the same molecule, the dissociation constant Kd on purified bovine mRPE65 was 0.096 ± 0.014 µM.

In the case of `CCCCCCCCCCC(=O)/C=C(\C)CC/C=C(\C)CCC=C(C)C` [TDT, 13,17,21-Trimethyl-docosa-12,16,20-trien-11-one], in the assay with Abca4−/− mice, the “effect on A2E accumulation” value is “profound effects on limiting A2E accumulation”. Besides, the Kd on purified bovine mRPE65 turned out to be 0.058 ± 0.005 µM.
